From article PMC6112376, “Comprehensive Analyses and Prioritization of Tox21 10K Chemicals Affecting Mitochondrial Function by in-Depth Mechanistic Studies” (Environmental Health Perspectives, 2018)
Where two headings read alike, the source gives them in different places.

Key:
[1] = test system: Caenorhabditis elegans (Bristol N2); test: C. elegans larval development and growth assay
[2] = test system: Nrf2/ARE (ARE-bla HepG2 cells); test: ARE β-lactamase reporter gene assay; assay type: cell-based, human; settings: 16 h incubation, mean±SD of three experiments
[3] = test system: mitochondrial respiratory chain complex III; assay type: biochemical, rat
[4] = test system: HepG2 cells; settings: cited from earlier work
[5] = test system: HeLa cells expressing YFP-Parkin; test: Parkin translocation assay; assay type: cell-based, human; settings: HeLa cells stably expressing YFP-Parkin; treated for 2 h
[6] = test system: mitochondrial respiratory chain complex V; assay type: biochemical, rat
[7] = test system: HepG2 cells; test: ROS-Glo hydrogen peroxide (ROS) assay; assay type: cell-based, human; settings: 2 h treatment, mean±SD of three experiments
[8] = biological target: T1, mitochondrial respiratory chain complex II (Rattus norvegicus, UniProt P21913+Q641Z9+Q6PCT8+Q920L2); test: Respiratory chain complex II activity; assay type: biochemical; settings: tested up to 100μM
T1 construct: Submitochondrial particles were prepared by subjecting the intact rat mitochondria, isolated as described above, to three successive freeze–thaw cycles; from tissue; host or cells: rat liver mitochondria (submitochondrial particles)

[9] = test system: rat primary hepatocytes; test: MMP assay in rat primary hepatocytes; settings: for Rat hepatocytes (efficacy) (MMP): % of positive control, mean±SD of three experiments; for IC50: Rattus norvegicus, Hepatocyte; for MMP assays efficacy (%) Rat Hepatocytes: mean ± SD of three experiments
[10] = test system: mitochondrial respiratory chain complex IV; assay type: biochemical, rat
[11] = test system: HepG2 cells; test: Intracellular ATP content (cell viability) assay; assay type: cell-based, human; settings: Homo sapiens, HepG2, 40 h treatment, mean±SD of three experiments
[12] = test system: Caenorhabditis elegans strain PE255; test: In vivo C. elegans ATP status assay
[13] = test system: hNSC; test: MMP assay in human neural stem cells (hNSC); assay type: cell-based; settings: Homo sapiens, Neural stem cell; 1 h treatment; fresh re-sourced stocks; mean±SD of three experiments; read-out: hNSC IC50 (MMP)
[14] = test system: p53 (p53-bla HCT-116 cells); test: p53 β-lactamase reporter gene assay; assay type: cell-based, human; settings: 16 h incubation; mean±SD of three experiments
[15] = test system: HepG2 cells; test: cells; settings: Homo sapiens; for Emax: HepG2, read-out: MMP assays efficacy (%) HepG2
[16] = test system: mitochondrial respiratory chain complex I; assay type: biochemical, rat; settings: at 100μM
[17] = test system: isolated rat liver mitochondria; test: Oxygen consumption, Clark-type oxygen electrode; assay type: biochemical; settings: for I-ADP, % of control (O2 consumption rate): glutamate/malate driven state 3 respiration; for I-ADP, % of control (O2 consumption rate) / I-sub, % of control (O2 consumption rate) / II-ADP, % of control (O2 consumption rate) / II-sub, % of control (O2 consumption rate): isolated rat liver mitochondria; for I-sub, % of control (O2 consumption rate): glutamate/malate driven state 4 respiration; for II-ADP, % of control (O2 consumption rate): succinate-driven state 3 respiration; for II-sub, % of control (O2 consumption rate): succinate-driven state 4 respiration
[18] = 1 h, read-out: Rat hepatocytes IC50 (MMP)
[19] = read-out: MMP assays IC50 (µM) Rat Hepatocytes
[20] = 5 mM glucose, read-out: ATP (HepG2, glucose) IC50
[21] = 10 mM galactose, read-out: ATP (HepG2, galactose) IC50
[22] = HepG2, 1 h, read-out: HepG2 IC50 Galactose (MMP)
[23] = HepG2, 1 h, read-out: HepG2 IC50 Glucose (MMP)
[24] = HepG2, read-out: MMP assays IC50 (µM) HepG2

T1 sequence (Q920L2 35-656): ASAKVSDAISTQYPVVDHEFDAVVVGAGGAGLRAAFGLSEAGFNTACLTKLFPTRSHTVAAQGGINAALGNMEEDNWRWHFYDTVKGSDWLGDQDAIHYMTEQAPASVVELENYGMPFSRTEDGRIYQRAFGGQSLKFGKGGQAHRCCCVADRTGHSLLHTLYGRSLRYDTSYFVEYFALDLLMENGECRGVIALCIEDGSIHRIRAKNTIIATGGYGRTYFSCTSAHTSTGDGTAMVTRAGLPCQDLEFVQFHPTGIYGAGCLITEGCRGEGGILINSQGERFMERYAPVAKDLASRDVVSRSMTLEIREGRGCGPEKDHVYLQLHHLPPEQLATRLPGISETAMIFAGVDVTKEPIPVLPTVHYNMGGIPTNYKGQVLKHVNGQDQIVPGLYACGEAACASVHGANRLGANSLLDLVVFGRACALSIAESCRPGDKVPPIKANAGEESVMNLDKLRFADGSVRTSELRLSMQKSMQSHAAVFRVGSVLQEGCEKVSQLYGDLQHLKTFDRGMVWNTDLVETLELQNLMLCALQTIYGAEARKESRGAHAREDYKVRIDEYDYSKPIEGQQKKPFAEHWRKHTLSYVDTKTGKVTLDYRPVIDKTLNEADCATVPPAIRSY
T1 sequence (P21913 31-282): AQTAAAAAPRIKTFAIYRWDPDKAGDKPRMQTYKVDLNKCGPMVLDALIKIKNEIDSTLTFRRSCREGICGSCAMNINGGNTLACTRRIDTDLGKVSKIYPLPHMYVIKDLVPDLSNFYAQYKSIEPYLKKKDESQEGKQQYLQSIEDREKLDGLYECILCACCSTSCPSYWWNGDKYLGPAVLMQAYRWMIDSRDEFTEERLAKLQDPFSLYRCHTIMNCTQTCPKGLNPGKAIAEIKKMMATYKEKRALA
T1 sequence (Q641Z9 1-169): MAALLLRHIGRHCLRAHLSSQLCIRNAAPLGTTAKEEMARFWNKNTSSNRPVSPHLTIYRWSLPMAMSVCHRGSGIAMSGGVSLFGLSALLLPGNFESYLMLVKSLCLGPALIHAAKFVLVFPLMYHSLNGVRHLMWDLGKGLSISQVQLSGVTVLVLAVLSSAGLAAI
T1 sequence (Q6PCT8 57-159): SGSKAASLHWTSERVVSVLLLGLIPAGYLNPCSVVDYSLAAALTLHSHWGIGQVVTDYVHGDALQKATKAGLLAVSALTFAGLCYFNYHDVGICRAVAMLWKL

NNc1nc(-c2ccc([N+](=O)[O-])cc2)cs1 [2-Hydrazino-4-(4-nitrophenyl)thiazole]
EXT: mean difference in nematode size relative to plate controls ([1]; 0.5 µM): 0.08621
EXT: mean difference in nematode size relative to plate controls ([1]; 1 µM): 0.08886
EXT: mean difference in nematode size relative to plate controls ([1]; 5 µM): 0.126
EXT: mean difference in nematode size relative to plate controls ([1]; 10 µM): 0.2572
EXT: mean difference in nematode size relative to plate controls ([1]; 25 µM): 0.3181
EXT: mean difference in nematode size relative to plate controls ([1]; 50 µM): 1.067
EXT: mean difference in nematode size relative to plate controls ([1]; 75 µM): 1.594
EXT: mean difference in nematode size relative to plate controls ([1]; 100 µM): 1.403
minimal effective concentration ([1]; Caenorhabditis elegans, read-out: LEC EXT: lowest effect concentration for extinction, a measure of nematode size): 25 µM
EC50 ([2]; Homo sapiens, HepG2, read-out: ARE (HepG2) EC50): 9.83 ± 3.79 µM
Complex III % inhibition (activity call) [3]: Inactive
MMP assays efficacy (%) qHTS-HepG2 [4]: -106±1%
IC50 ([4]; read-out: MMP assays IC50 (µM) qHTS-HepG2): 1.6 ± 0.29 µM
Parkin recruitment [5]: Active
Complex V % inhibition (activity call) [6]: Inactive
EC50 ([7]; Homo sapiens, HepG2, read-out: ROS (HepG2) EC50): 15.4 ± 16.6 µM
Complex II % inhibition (activity call) [8]: Inactive
Rat hepatocytes (efficacy) (MMP) [9]: −73.9±11.0%
IC50 [9, 18]: 20.9 ± 11.3 µM
IC50 [9, 19]: 7.9 ± 5.75 µM
MMP assays efficacy (%) Rat Hepatocytes [9]: -89±18%
Complex IV % inhibition (activity call) [10]: Inactive
IC50 [11, 20]: 48.1 ± 24.3 µM
IC50 [11, 21]: 35.5 ± 4.54 µM
LUM: mean difference in luminescence (ATP content) relative to plate controls ([12]; 0.5 µM): -0.01284
LUM: mean difference in luminescence (ATP content) relative to plate controls ([12]; 1 µM): -0.00711
LUM: mean difference in luminescence (ATP content) relative to plate controls ([12]; 5 µM): 0.1253
LUM: mean difference in luminescence (ATP content) relative to plate controls ([12]; 10 µM): -0.00409
LUM: mean difference in luminescence (ATP content) relative to plate controls ([12]; 25 µM): 0.7526
LUM: mean difference in luminescence (ATP content) relative to plate controls ([12]; 50 µM): 0.8462
LUM: mean difference in luminescence (ATP content) relative to plate controls ([12]; 75 µM): 1.473
LUM: mean difference in luminescence (ATP content) relative to plate controls ([12]; 100 µM): 1.784
minimal effective concentration ([12]; Caenorhabditis elegans, read-out: LEC LUM: lowest effect concentration for luminescence, a measure of nematode ATP content): 50 µM
IC50 [13]: 4.3 ± 1.42 µM
p53 (HCT-116) EC50 [14]: Inactive
IC50 [15, 22]: 14.2 ± 2.56 µM
IC50 [15, 23]: 12.1 ± 1.39 µM
IC50 [15, 24]: 1.26 µM
Emax [15]: 97%
Complex I % inhibition [16]: 21.6±7.1 at 100μM %

COc1cc2c(cc1OC)-c1cc3ccc(OC)c(OC)c3c[n+]1CC2 [Palmatine chloride hydrate]
EXT: mean difference in nematode size relative to plate controls ([1]; 0.5 µM): -0.01207
EXT: mean difference in nematode size relative to plate controls ([1]; 1 µM): -0.07266
EXT: mean difference in nematode size relative to plate controls ([1]; 5 µM): -0.05419
EXT: mean difference in nematode size relative to plate controls ([1]; 10 µM): -0.03134
EXT: mean difference in nematode size relative to plate controls ([1]; 25 µM): 0.08842
EXT: mean difference in nematode size relative to plate controls ([1]; 50 µM): 0.1943
ARE (HepG2) EC50 [2]: Inactive
Complex III % inhibition (activity call) [3]: Inactive
MMP assays efficacy (%) qHTS-HepG2 [4]: -99±8%
IC50 ([4]; read-out: MMP assays IC50 (µM), qHTS-HepG2): 22.7 ± 5.23 µM
I-ADP, % of control (O2 consumption rate) ([17]; 0.8 µM): 91 (32.3) % of control
I-sub, % of control (O2 consumption rate) ([17]; 0.8 µM): 114 (10.9) % of control
II-ADP, % of control (O2 consumption rate) ([17]; 0.8 µM): 96 (51.6) % of control
II-sub, % of control (O2 consumption rate) ([17]; 0.8 µM): 119 (19.5) % of control
I-ADP, % of control (O2 consumption rate) ([17]; 4 µM): 76 (27.3) % of control
I-sub, % of control (O2 consumption rate) ([17]; 4 µM): 105 (10.1) % of control
II-ADP, % of control (O2 consumption rate) ([17]; 4 µM): 89 (47.6) % of control
II-sub, % of control (O2 consumption rate) ([17]; 4 µM): 103 (16.9) % of control
I-ADP, % of control (O2 consumption rate) ([17]; 20 µM): 70 (25.0) % of control
I-sub, % of control (O2 consumption rate) ([17]; 20 µM): 114 (10.9) % of control
II-ADP, % of control (O2 consumption rate) ([17]; 20 µM): 85 (45.5) % of control
II-sub, % of control (O2 consumption rate) ([17]; 20 µM): 116 (19.1) % of control
I-ADP, % of control (O2 consumption rate) ([17]; 100 µM): 77 (35.3) % of control
I-sub, % of control (O2 consumption rate) ([17]; 100 µM): 172 (26.6) % of control
II-ADP, % of control (O2 consumption rate) ([17]; 100 µM): 56 (40.4) % of control
II-sub, % of control (O2 consumption rate) ([17]; 100 µM): 114 (35.8) % of control
Potential Mechanism ([17]; mitochondrial respiration in isolated rat liver mitochondria, Clark type oxygen electrode, over tested concentrations): Uncoupler + Inhibitor
Parkin recruitment [5]: Inactive
Complex V % inhibition (activity call) [6]: Inactive
ROS (HepG2) EC50 [7]: Inactive
Complex II % inhibition (activity call) [8]: Inactive
Rat hepatocytes (efficacy) (MMP) [9]: −101±2.09%
IC50 [9, 18]: 6.74 ± 2.89 µM
IC50 [9, 19]: 1.37 ± 0.7 µM
MMP assays efficacy (%) Rat Hepatocytes [9]: -72±21%
Complex IV % inhibition (activity call) [10]: Inactive
IC50 [11, 20]: 19 ± 9.49 µM
IC50 [11, 21]: 27.1 ± 8.93 µM
LUM: mean difference in luminescence (ATP content) relative to plate controls ([12]; 0.5 µM): 1.192
LUM: mean difference in luminescence (ATP content) relative to plate controls ([12]; 1 µM): -0.05262
LUM: mean difference in luminescence (ATP content) relative to plate controls ([12]; 5 µM): 0.04332
LUM: mean difference in luminescence (ATP content) relative to plate controls ([12]; 10 µM): -0.02063
LUM: mean difference in luminescence (ATP content) relative to plate controls ([12]; 25 µM): -0.0762
LUM: mean difference in luminescence (ATP content) relative to plate controls ([12]; 50 µM): 0.2026
LUM: mean difference in luminescence (ATP content) relative to plate controls ([12]; 75 µM): 0.01325
LUM: mean difference in luminescence (ATP content) relative to plate controls ([12]; 100 µM): 0.2556
IC50 [13]: 34.1 ± 11.2 µM
p53 (HCT-116) EC50 [14]: Inactive
IC50 [15, 22]: 70.6 ± 4.79 µM
IC50 [15, 23]: 55.7 ± 17.9 µM
IC50 [15, 24]: 12.6 µM
Emax [15]: 86%
Complex I % inhibition [16]: 12.3±3.05 at 100μM %
